pIC50: −log10 of the molar value.
How the values were obtained:
Steryl-sulfatase = target: T1, Steryl-sulfatase (Homo sapiens, UniProt P08842); test: In vitro inhibition of estrone sulfatase in placental microsomes; parameters: species or system Placenta
T1 sequence (P08842 whole entry): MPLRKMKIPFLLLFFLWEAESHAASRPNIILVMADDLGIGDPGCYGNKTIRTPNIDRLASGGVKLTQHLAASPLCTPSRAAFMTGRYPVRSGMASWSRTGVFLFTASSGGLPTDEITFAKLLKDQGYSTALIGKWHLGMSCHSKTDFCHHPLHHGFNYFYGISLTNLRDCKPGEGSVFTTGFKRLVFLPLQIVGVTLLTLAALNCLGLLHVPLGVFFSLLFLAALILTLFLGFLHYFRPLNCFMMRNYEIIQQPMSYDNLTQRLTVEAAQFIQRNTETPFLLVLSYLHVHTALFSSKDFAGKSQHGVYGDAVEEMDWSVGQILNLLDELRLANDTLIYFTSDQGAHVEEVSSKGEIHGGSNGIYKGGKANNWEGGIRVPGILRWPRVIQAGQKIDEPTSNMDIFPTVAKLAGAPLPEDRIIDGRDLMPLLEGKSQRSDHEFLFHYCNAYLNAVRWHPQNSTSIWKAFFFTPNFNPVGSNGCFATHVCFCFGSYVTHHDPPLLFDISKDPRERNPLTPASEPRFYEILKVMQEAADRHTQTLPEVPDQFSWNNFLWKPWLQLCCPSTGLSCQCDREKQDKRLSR

[1] = target: T2, Steryl-sulfatase (Homo sapiens) (UniProt P08842); test: Inhibition of estrone sulfatase in MCF-7 breast cancer cells at 0.1 uM; assay type: cell-based; conditions: MCF7
T2 sequence (whole entry): T1 sequence (P08842 whole entry)

Rattus norvegicus = species on record: Rattus norvegicus; test: Effect on uterine weight gain in ovariectomized rat, expressed as uterine weight/total body weight X100 (0.036+/-0.001); assay type: functional
[2] = target: T3, Steryl-sulfatase (Rattus norvegicus) (UniProt P15589); test: In vivo inhibition of estrone sulfatase in rat liver after oral administration; assay type: organism-based; conditions: concentration not given here
T3 sequence (whole entry): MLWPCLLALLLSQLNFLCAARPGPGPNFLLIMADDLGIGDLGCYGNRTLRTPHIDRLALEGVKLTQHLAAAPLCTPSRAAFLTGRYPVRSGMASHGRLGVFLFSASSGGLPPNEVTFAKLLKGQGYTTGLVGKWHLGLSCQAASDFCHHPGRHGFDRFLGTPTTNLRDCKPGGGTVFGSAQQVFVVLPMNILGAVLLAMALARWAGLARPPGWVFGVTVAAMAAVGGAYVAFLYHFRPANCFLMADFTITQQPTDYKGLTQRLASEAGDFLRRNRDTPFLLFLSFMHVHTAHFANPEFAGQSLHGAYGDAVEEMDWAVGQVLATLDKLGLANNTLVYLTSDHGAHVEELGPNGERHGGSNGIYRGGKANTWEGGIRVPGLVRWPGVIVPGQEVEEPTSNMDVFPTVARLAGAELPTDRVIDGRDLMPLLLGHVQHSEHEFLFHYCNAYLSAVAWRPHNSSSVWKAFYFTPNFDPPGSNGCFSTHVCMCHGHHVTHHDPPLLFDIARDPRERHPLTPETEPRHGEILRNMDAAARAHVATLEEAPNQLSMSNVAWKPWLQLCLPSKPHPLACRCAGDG

Compound | pIC50 (Steryl-sulfatase) | inhibition [1] [%] | Average uterine weight (Rattus norvegicus) | inhibition [2] [%]
C[C@]12CC[C@@H]3c4ccc(OS(N)(=O)=O)cc4CC[C@H]3[C@@H]1CC/C2=N\O | 7.10 | 99 | 0.15 | 99
C[C@]12CC[C@@H]3c4ccc(OS(N)(=O)=O)cc4CC[C@H]3[C@@H]1CCC2=O [EMATE] | 7.03 |  | 0.11 | 99
